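Values below derive from 48-hour exposures of cells grown in 96-well plates, with endpoints linearly interpolated between the two concentrations bracketing the appropriate inhibition level. GI50 = concentration required for 50% inhibition of growth. TGI is the concentration that stops growth completely.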 Where a SMILES comes first, the peptide text is derived from it. The star is where a group is joined. Boc = CC(C)(C)OC(=O)*; OSu = O=C1CCC(=O)N1O*
Assays:
Assay in all cases: inhibition of tumour cell growth, NCI panel, 48 h
ACHN renal = test system: ACHN renal
SN12C renal = test system: SN12C renal
HOP-62 NSCLC = test system: HOP-62 NSCLC
SW-620 colon = test system: SW-620 colon
SF-295 CNS = test system: SF-295 CNS
NCI-H460 lung = test system: NCI-H460 lung
PC-3 prostate = test system: PC-3 prostate
MALME-3M melanoma = test system: MALME-3M melanoma
UACC-257 melanoma = test system: UACC-257 melanoma
LOX IMVI melanoma = test system: LOX IMVI melanoma

Compound	TGI (ACHN renal) [µM]	TGI (SN12C renal) [µM]	TGI (HOP-62 NSCLC) [µM]	TGI (SW-620 colon) [µM]	TGI (SF-295 CNS) [µM]	TGI (NCI-H460 lung) [µM]	TGI (PC-3 prostate) [µM]	TGI (MALME-3M melanoma) [µM]	TGI (UACC-257 melanoma) [µM]	TGI (LOX IMVI melanoma) [µM]	GI50 (ACHN renal) [µM]	GI50 (SN12C renal) [µM]	GI50 (HOP-62 NSCLC) [µM]	GI50 (SW-620 colon) [µM]	GI50 (SF-295 CNS) [µM]	GI50 (NCI-H460 lung) [µM]	GI50 (PC-3 prostate) [µM]	GI50 (MALME-3M melanoma) [µM]	GI50 (UACC-257 melanoma) [µM]	GI50 (LOX IMVI melanoma) [µM]
N/C(=N\S(=O)(=O)c1ccc(S(=O)(=O)c2ccccc2)s1)Nc1ccc(Cl)cc1	71.4	36.3	39.3	44.8	47	33.8	29.6	47.9	29.1	32.4										
CC(NC(=O)C(NC(=O)OC(C)(C)C)C(C)C)C(=O)NCC(=O)ON1C(=O)CCC1=O (stereo not drawn) (Boc-Val-Ala-Gly-OSu; configuration not given here)	> 100	> 100	> 100	> 100	> 100	> 100	> 100	> 100	> 100											
C[C@H](CCC(=O)NCCS(=O)(=O)O)[C@H]1CC[C@H]2[C@@H]3CC[C@@H]4C[C@H](O)CC[C@]4(C)[C@H]3CC[C@]12C	> 100	> 100	> 100	> 100	> 100	> 100	> 100	> 100	> 100	> 100										
O=C(c1ccccc1)N1CCN(C(=S)N(C(=O)c2ccccc2)c2ccccc2)C1=S	7.2	12.2	26.3	> 43.5	31.6	44.7	20.5	19.1	22.4	3.67										
Oc1ccc(-c2nc(-c3cccnc3)c(-c3ccc(Cl)cc3)[nH]2)cc1O	26.1	31.3	25.3	27.2	29.8		21.2	27	28.3	30.1										
Nn1c(COc2cccc(OCc3n[nH]c(=S)n3N)c2)n[nH]c1=S	> 100	> 100	> 100	> 100	> 100	> 100	> 100	> 100	> 100	> 100										
COC(=O)NCCc1[nH]nc2c1C(=O)C=C(N1CCOCC1)C2=O	> 100	> 100	> 100	> 100	> 100	> 100	> 100	> 100	> 100	> 100										
CCSc1sc(=Nc2ccc(N=c3sc(C)c(SC)s3)cc2)sc1-c1ccc(C)cc1	> 100	> 100	> 100	> 100	> 100	> 100	> 100	> 100	> 100	> 100										
Nc1ncnc2c1nnn2C1C=CC(COS(N)(=O)=O)C1 (centres undefined)	49.1	> 100	> 100	> 100	> 100	> 100	26.9	> 100	62.6	17.8										
CC(=O)N=C1N(/C=C2\C(=O)Oc3ccccc3C2=O)C(=O)/C(=C/c2ccc(OC(C)=O)cc2)N1C	> 100	> 100	> 100	> 100	> 100	> 100	> 100	> 100	> 100	> 100										
O=C(/C=C/c1ccc(O)cc1)c1ccc2c(c1)OCO2	52.8	30.7	38.5	42.9	55.5	77.2	62.2	> 100	33.6	47										
CCC12CCCN(Cc3ccccc3)C1c1c([nH]c3ccccc13)C(C(=O)OC)C2 (centres undefined)	> 10	> 10	> 10	> 10	> 10		> 10	> 10	> 10	> 10										
COC(=O)c1c(O)ccc2c1c1c(n2Cc2ccccc2Cl)C(=O)c2ccccc2C1=O	36.7	23.2	47.9		31.6	23.5	26.3	31.4	32.8											
O=C(Nc1cccc(-n2ccc3c(NC(=O)c4ccccc4)nccc32)c1)Nc1cc(C(F)(F)F)cc(C(F)(F)F)c1	7.61	29.4	> 50	> 50	30.5	> 50	> 50	35.8	15.2	> 50	1.48	2.05	3.75	2.06	1.88	1.7	1.58	3.09	2.45	2.12
CCCCC(C#N)(OP1(=O)OC(c2ccccc2)C(C)N1C)c1ccccc1 (centres undefined)	37.5	31.3	38.7	34.3	32.3	31	32.7	30.6	33.7	36.7										
CN(C)CCNC(=O)c1cccc2c(NCCN(C)C)c3ccccc3nc12	9.59	5.94	13.2	> 23.4	17.6	3.91	7.34	15.4	17.3	4.75										
CCN(CC)CC1CCCCN1CC(=O)N1c2ccccc2NC(=O)CC1C (centres undefined)	> 100	> 100	> 100	> 100	> 100	> 100	> 100	> 100	> 100	> 100										
O=C1CCC2(CC1CC(Sc1ccccc1)Sc1ccccc1)OCCO2 (centres undefined)	> 100		> 100	> 100	> 100	> 100	> 100	84.7	> 100	> 100										
S=C(NC1=NCC(CN2CCN(c3ccccc3)CC2)O1)Nc1ccccc1 (centres undefined)	> 100	> 100	> 100	> 100	> 100	> 100	> 100	> 100	> 100	61.8										
CCCCC(=O)NS(=NC(=O)c1ccccc1)C(Cl)(Cl)Cl (centres undefined)	> 100	> 100	> 100	> 100	> 100	> 100	> 100	> 100	> 100	> 100										

From PubChem BioAssay (NCI)
